# Calls of active or inactive are those of the source. The rule behind the calls is not given here.
# Experiments:
# A549 = assay: Cytotoxicity against human A549 cells assessed as reduction in cell proliferation measured after 72 hrs by WST8 assay; assay type: functional, cell-based; settings: A549, 72 h
# [1] = target: T1, Signal transducer and activator of transcription 3 (Homo sapiens, UniProt P40763); assay: Inhibition of IL-6 induced STAT3 phosphorylation at Tyr705 residue in human MCF7 cells at 10 uM preincubated for 1 hr followed by IL-6 stimulation and measured after 1 hr by Western blot analysis relative to control; assay type: cell-based
# T1 sequence (P40763 whole entry): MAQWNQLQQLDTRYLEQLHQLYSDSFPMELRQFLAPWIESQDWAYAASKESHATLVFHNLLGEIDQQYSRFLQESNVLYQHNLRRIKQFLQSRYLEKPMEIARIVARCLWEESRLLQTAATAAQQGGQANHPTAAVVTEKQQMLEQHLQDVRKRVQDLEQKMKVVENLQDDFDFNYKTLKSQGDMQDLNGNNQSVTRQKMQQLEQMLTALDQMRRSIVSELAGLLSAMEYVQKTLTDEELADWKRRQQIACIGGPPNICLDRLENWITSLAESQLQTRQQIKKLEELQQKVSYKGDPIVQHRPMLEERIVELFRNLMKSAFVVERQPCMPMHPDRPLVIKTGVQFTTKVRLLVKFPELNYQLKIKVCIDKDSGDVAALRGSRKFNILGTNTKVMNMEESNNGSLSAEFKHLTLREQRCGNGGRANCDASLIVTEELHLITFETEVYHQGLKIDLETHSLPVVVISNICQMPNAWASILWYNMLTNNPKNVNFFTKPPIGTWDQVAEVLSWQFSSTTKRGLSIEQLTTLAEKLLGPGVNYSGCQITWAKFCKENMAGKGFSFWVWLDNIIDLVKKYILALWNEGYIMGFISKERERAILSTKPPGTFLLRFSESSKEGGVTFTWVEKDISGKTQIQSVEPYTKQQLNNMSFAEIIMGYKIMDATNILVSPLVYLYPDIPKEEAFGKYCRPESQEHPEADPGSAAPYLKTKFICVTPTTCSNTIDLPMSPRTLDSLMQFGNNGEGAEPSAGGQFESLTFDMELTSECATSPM
# [2] = target: T1, Signal transducer and activator of transcription 3; assay: Inhibition of IL-6 induced STAT3 phosphorylation at Tyr705 residue in human MCF7 cells at 1 uM preincubated for 1 hr followed by IL-6 stimulation and measured after 1 hr by Western blot analysis relative to control; assay type: cell-based
# MCF7 [3] = assay: Cytotoxicity against human MCF7 cells assessed as reduction in cell proliferation measured after 72 hrs by WST8 assay; assay type: functional, cell-based; settings: MCF7, 72 h
# MDA-MB-231 [4] = assay: Cytotoxicity against human MDA-MB-231 cells assessed as reduction in cell proliferation measured after 72 hrs by WST8 assay; assay type: functional, cell-based; settings: MDA-MB-231, 72 h
# [5] = target: T1, Signal transducer and activator of transcription 3; assay: Inhibition of IL-6 induced STAT3 phosphorylation at Tyr705 residue in human MCF7 cells assessed as phosphorylation intensity level at 4 uM preincubated for 1 hr followed by IL-6 stimulation and measured after 1 hr by Western blot analysis; assay type: cell-based; set-up: scale not given: the % may be the effect or the level left
# MCF7 [6] = assay: Effect on total STAT3 level in IL-6 induced human MCF7 cells at 0.5 to 4 uM preincubated for 1 hr followed by IL-6 stimulation and measured after 1 hr by Western blot analysis; assay type: ADME, cell-based; settings: mcf7, 1 h
# [7] = target: T1, Signal transducer and activator of transcription 3; assay: Inhibition of IL-6 induced STAT3 phosphorylation at Tyr705 residue in human MCF7 cells preincubated for 1 hr followed by IL-6 stimulation and measured after 1 hr by Western blot analysis; assay type: cell-based
# [8] = target: T1, Signal transducer and activator of transcription 3; assay: Inhibition of IL-6 induced STAT3 phosphorylation at Tyr705 residue in human MCF7 cells assessed as phosphorylation intensity level at 0.5 uM preincubated for 1 hr followed by IL-6 stimulation and measured after 1 hr by Western blot analysis; assay type: cell-based; set-up: scale not given: the % may be the effect or the level left
# [9] = target: T1, Signal transducer and activator of transcription 3; assay: Inhibition of IL-6 induced STAT3 phosphorylation at Tyr705 residue in human MCF7 cells assessed as phosphorylation intensity level at 2 uM preincubated for 1 hr followed by IL-6 stimulation and measured after 1 hr by Western blot analysis; assay type: cell-based; set-up: scale not given: the % may be the effect or the level left
# [10] = target: T1, Signal transducer and activator of transcription 3; assay: Inhibition of IL-6 induced STAT3 phosphorylation at Tyr705 residue in human MCF7 cells assessed as phosphorylation intensity level at 1 uM preincubated for 1 hr followed by IL-6 stimulation and measured after 1 hr by Western blot analysis; assay type: cell-based; set-up: scale not given: the % may be the effect or the level left
# [11] = target: Tyrosine-protein kinase JAK2 (Homo sapiens) (UniProt O60674); assay: Inhibition of human recombinant N-terminal His-tagged JAK2 (826 to 1132 residue) expressed in baculovirus expression system at 100 uM using Srctide as substrate by mobility shift assay relative to control
# Tyrosine-protein kinase JAK2 (Homo sapiens), sequence (O60674 whole entry, the tested form may be a part): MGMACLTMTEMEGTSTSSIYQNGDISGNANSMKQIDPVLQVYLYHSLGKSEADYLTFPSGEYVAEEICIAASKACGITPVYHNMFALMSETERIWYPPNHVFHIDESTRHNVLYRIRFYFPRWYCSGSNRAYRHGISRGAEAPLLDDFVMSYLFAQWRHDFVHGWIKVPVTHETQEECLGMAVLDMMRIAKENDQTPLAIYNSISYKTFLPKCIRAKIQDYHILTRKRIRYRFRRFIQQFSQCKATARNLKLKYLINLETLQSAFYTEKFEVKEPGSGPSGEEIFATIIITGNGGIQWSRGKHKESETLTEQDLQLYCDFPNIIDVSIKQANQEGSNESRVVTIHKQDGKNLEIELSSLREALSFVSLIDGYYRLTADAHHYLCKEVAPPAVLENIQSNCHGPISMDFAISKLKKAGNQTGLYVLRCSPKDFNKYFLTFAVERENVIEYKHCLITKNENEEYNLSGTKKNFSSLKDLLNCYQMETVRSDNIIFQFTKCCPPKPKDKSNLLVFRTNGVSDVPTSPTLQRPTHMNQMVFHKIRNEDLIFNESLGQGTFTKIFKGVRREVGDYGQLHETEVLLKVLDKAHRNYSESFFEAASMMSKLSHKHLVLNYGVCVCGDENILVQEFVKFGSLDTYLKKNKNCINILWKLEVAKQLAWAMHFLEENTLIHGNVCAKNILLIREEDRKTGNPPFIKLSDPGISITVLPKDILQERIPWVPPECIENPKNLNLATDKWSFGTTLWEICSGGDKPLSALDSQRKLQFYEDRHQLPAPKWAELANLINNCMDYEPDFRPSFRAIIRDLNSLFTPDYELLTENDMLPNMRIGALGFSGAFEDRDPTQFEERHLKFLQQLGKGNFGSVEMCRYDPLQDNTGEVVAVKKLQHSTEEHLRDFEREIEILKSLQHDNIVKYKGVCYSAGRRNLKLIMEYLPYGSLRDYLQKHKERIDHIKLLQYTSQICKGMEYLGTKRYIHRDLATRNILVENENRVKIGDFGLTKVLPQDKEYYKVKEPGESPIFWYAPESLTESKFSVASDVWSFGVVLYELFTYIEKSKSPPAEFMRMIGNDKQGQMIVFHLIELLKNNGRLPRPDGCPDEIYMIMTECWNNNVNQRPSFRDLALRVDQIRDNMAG
# [12] = target: T1, Signal transducer and activator of transcription 3; assay: Inhibition of FAM-G(py)LPQTV-NH2 binding to GST-tagged STAT3-SH2 domain (unknown origin) preincubated for 15 mins followed by FAM-G(py)LPQTV-NH2 addition and measured after 30 mins by TR-FRET assay
# MDA-MB-231 [13] = assay: Inhibition of JAK/STAT signaling in human MDA-MB-231 cells assessed as decrease in STAT3 phosphorylation incubated for 2 hrs by Western blot analysis; assay type: cell-based
# MDA-MB-231 [14] = assay: Inhibition of JAK/STAT signaling in human MDA-MB-231 cells assessed as decrease in STAT3 phosphorylation by measuring phosphorylated intensity level at 4 uM incubated for 2 hrs by Western blot analysis (reference value: 100%); assay type: cell-based; set-up: scale not given: the % may be the effect or the level left
# [15] = target: Tyrosine-protein kinase JAK2 (Homo sapiens) (UniProt O60674); assay: Inhibition of IL-6 induced JAK2 phosphorylation at Tyr1007/1008 residue in human MCF7 cells preincubated for 1 hr followed by IL-6 stimulation and measured after 1 hr by Western blot analysis; assay type: cell-based
# MDA-MB-231 [16] = assay: Inhibition of JAK/STAT signaling in human MDA-MB-231 cells assessed as decrease in STAT3 phosphorylation by measuring phosphorylated intensity level at 2 uM incubated for 2 hrs by Western blot analysis (reference value: 100%); assay type: cell-based; set-up: scale not given: the % may be the effect or the level left
# [17] = target: Tyrosine-protein kinase JAK1 (Homo sapiens) (UniProt P23458); assay: Inhibition of human recombinant N-terminal GST-tagged JAK1 (850 to 1154 residue) expressed in baculovirus expression system at 100 uM using JAK1 peptide as substrate by mobility shift assay relative to control
# Tyrosine-protein kinase JAK1 (Homo sapiens), sequence (P23458 whole entry): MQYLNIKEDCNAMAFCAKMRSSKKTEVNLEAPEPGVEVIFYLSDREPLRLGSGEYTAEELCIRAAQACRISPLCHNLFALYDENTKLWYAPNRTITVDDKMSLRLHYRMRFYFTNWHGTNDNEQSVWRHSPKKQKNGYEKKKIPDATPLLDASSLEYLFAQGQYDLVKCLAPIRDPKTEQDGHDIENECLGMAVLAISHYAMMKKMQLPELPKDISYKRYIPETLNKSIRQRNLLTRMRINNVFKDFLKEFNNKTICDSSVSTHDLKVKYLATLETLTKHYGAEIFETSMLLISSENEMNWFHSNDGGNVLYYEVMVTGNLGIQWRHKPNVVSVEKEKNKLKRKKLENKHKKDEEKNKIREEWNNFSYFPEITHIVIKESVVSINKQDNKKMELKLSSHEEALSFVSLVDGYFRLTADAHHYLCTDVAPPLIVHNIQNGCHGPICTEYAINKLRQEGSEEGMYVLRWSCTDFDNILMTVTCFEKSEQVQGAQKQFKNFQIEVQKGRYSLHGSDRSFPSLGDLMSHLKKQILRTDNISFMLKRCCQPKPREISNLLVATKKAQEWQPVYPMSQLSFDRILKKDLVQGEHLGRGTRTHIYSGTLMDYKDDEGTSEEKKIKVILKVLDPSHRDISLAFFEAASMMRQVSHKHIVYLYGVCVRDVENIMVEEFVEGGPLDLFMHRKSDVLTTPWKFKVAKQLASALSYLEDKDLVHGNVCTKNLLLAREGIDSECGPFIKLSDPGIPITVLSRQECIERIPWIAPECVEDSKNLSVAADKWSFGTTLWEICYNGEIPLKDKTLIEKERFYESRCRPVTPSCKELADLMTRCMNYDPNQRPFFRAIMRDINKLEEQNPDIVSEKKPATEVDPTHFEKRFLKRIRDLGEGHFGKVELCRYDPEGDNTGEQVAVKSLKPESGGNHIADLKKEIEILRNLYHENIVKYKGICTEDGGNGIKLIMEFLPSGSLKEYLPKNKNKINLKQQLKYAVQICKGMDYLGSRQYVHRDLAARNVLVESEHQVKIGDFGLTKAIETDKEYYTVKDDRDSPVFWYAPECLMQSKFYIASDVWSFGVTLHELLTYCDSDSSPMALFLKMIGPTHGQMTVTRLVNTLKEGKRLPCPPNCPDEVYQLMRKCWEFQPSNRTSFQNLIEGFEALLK
# MDA-MB-231 [18] = assay: Inhibition of JAK/STAT signaling in human MDA-MB-231 cells assessed as decrease in STAT3 phosphorylation by measuring phosphorylated intensity level at 1 uM incubated for 2 hrs by Western blot analysis (reference value: 100%); assay type: cell-based; set-up: scale not given: the % may be the effect or the level left
# MDA-MB-231 [19] = assay: Inhibition of JAK/STAT signaling in human MDA-MB-231 cells assessed as decrease in STAT3 phosphorylation by measuring phosphorylated intensity level at 0.5 uM incubated for 2 hrs by Western blot analysis (reference value: 100%); assay type: cell-based; set-up: scale not given: the % may be the effect or the level left
# [20] = target: T2, Tyrosine-protein kinase JAK3 (Homo sapiens) (UniProt P52333); assay: Inhibition of human recombinant N-terminal His-tagged JAK3 (795 to 1124 residue) expressed in baculovirus infected Sf21 insect cells up to 100 uM using Srctide as substrate by mobility shift assay
# T2 sequence (whole entry): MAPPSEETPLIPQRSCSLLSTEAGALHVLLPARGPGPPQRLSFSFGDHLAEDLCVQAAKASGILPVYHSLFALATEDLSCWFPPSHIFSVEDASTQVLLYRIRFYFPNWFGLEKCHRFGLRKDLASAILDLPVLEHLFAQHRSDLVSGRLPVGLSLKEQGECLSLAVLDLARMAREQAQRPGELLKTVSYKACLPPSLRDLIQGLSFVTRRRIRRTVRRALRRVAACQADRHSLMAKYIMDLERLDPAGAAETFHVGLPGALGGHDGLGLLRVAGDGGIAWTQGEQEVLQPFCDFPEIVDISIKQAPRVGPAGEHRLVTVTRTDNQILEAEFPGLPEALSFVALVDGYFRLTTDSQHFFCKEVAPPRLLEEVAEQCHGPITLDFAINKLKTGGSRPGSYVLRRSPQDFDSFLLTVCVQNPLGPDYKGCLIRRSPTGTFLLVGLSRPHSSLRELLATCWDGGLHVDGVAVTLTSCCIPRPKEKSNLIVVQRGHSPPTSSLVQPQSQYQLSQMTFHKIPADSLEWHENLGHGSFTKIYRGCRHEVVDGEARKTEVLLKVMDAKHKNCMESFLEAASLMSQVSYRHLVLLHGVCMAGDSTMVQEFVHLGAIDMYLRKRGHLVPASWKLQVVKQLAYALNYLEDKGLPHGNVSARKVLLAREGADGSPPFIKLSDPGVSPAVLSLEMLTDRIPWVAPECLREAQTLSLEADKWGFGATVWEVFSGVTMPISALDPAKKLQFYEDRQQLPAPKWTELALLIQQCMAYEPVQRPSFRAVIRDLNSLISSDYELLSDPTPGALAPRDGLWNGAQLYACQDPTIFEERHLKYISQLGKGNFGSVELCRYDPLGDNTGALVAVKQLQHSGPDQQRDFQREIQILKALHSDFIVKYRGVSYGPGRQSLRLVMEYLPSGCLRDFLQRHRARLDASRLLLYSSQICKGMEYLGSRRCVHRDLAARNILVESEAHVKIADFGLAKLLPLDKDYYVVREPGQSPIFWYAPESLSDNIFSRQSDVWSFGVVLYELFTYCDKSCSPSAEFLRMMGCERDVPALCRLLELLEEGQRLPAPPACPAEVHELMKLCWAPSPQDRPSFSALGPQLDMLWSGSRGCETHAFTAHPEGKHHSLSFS
# [21] = target: T3, Signal transducer and activator of transcription 1-alpha/beta (Homo sapiens) (UniProt P42224); assay: Inhibition of FAM-G(py)DKPHVL-NH2 binding to GST-tagged STAT1-SH2 domain (unknown origin) preincubated for 15 mins followed by FAM-G(py)DKPHVL-NH2 addition and measured after 30 mins by TR-FRET assay
# T3 sequence (whole entry): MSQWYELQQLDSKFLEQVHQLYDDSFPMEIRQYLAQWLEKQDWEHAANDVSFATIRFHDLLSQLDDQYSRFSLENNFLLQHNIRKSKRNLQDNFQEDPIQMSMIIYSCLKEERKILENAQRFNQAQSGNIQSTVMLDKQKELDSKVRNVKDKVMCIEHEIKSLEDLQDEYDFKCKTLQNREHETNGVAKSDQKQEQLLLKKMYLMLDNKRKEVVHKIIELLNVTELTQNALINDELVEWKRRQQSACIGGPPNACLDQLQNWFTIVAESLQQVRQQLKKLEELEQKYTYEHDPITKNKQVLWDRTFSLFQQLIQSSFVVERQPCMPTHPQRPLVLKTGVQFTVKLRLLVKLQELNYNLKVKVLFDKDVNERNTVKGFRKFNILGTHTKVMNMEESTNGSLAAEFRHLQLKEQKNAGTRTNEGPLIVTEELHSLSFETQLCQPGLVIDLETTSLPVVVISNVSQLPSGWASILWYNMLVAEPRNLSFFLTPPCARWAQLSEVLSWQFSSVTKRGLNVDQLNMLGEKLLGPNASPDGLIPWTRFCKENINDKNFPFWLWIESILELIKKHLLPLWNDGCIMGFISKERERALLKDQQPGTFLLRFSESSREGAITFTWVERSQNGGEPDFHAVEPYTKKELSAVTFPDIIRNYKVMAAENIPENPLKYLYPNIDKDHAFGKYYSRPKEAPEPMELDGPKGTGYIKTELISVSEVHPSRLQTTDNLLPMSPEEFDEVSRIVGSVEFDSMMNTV
inhibition [1],inhibition [2],Activity [5] [%],Activity [8] [%],Activity [9] [%],Activity [10] [%],Structure (SMILES),IC50 (A549) [nM],IC50 (MCF7 [3]) [nM],IC50 (MDA-MB-231 [4]) [nM],Activity (MCF7 [6]),also measured
,,23,107,38,84,CC(=O)c1cc2c(o1)C(=O)c1cccc(O)c1C2=O,44,51,170,Non-Toxic,IC50 [7]: 2000 nM
100%,Active,,,,,C[C@H](O)c1cc2c(o1)C(=O)c1c(O)cccc1C2=O,280,1110,330,,
inactive,inactive,,,,,CC1(C)CCC2=C(O1)c1ccccc1C(=O)C2=O [LAPACHONE],1960,710,1390,,
100%,Active,3,76,43,75,C[C@H](O)c1cc2c(o1)C(=O)c1cccc(O)c1C2=O,130,500,410,Non-Toxic,inhibition [11]: 80.6%; inhibition [12]: inactive; inhibition (MDA-MB-231 [13]): Dose-dependent effect; Activity (MDA-MB-231 [14]): 35%; inhibition [15]: Dose-dependent effect; Activity (MDA-MB-231 [16]): 21%; inhibition [17]: 94.8%; IC50 [7]: 2000 nM; Activity (MDA-MB-231 [18]): 78%; Activity (MDA-MB-231 [19]): 68%; inhibition [20]: inactive; inhibition [21]: inactive
inactive,inactive,,,,,CC1(C)CCC2=C(O1)C(=O)c1ccccc1C2=O [ALPHA-LAPACHONE],> 30000,> 30000,> 30000,,
,,35,36,20,23,C[C@H](O)c1cc2c(o1)C(=O)c1ccccc1C2=O,720,280,1590,Non-Toxic,
,,,,,,CC(=O)c1cc2c(o1)C(=O)c1ccccc1C2=O [NAPABUCASIN],120,240,250,Non-Toxic,inhibition [11]: 84.7%; inhibition (MDA-MB-231 [13]): Dose-dependent effect; Activity (MDA-MB-231 [14]): 28%; Activity (MDA-MB-231 [16]): 48%; inhibition [17]: 95.5%; Activity (MDA-MB-231 [18]): 107%; Activity (MDA-MB-231 [19]): 111%; inhibition [20]: inactive

Structure (SMILES),inhibition [1],inhibition [2],Activity [5] [%],Activity [8] [%],Activity [9] [%],Activity [10] [%],IC50 (A549) [nM],IC50 (MCF7 [3]) [nM],IC50 (MDA-MB-231 [4]) [nM],Activity (MCF7 [6]),also measured
CC(C)=CCC1=C(O)C(=O)c2ccccc2C1=O [LAPACHOL],inactive,inactive,,,,,> 30000,> 30000,> 30000,,

# From ChEMBL document CHEMBL4616624, “STAT3 inhibitory activity of naphthoquinones isolated from Tabebuia avellanedae” (Bioorg Med Chem, 2020)
